{"source": "patent US20110034335A1", "about": "“Treatment of Ornamental Plants” (priority 2009, published 2011)", "assay_type_in_all_cases": "in vivo", "key": {"[1]": {"system": "racks of flowering plants", "assay": "Racks of flowering plants, overall comparison sprayed vs control (Example 8)", "settings": "25 mg/L; every variety", "experimental": "(§1) Spray applications were made using (unless otherwise noted) AFxRD-038 powder containing 3.8% active ingredient, i.e. 1-MCP, and also containing dextrose, alpha-cyclodextrin, and amino acid salt. Rates listed are for active ingredient e.g. 5 mg active ingredient per liter. Sprayed liquid contained (unless otherwise noted) AFxRD-038 powder added to water. AFxRD-038 powder was obtained from AgroFresh Inc. The water used (unless otherwise noted) was tap water. Applications were done in 500 ml spray bottles at rates typical for growth regulators applications in the ornamental industry i.e., 200 ml per square meter. Spraying was done within 5-15 minutes of mixing the formulation. Plants were allowed to dry for 1-4 hours before being challenged with ethylene (2 ppm for about 16 hours at ambient temperatures).\nRacks of flowers were sprayed with spray liquid containing 25 mg/L at rate of 200 ml/square meter. Racks were then placed into a full enclosed truck (length 7.3 meter) for 14 hours. Plants were then challenged with ethylene and evaluated 3 and 7 days later, using a rating scale from 0 (poor) to 2 (good). […] Results were as follows:\nIn no case was the sprayed plant worse to a statistically significant degree than the corresponding control plant. In most cases the sprayed plant was better than the corresponding control plant."}, "nursery plants": {"system": "nursery plants", "assay": "Nursery plants, reassessment after 4 weeks in greenhouse (Example 10)", "settings": "50 mg/L of 1-MCP; after 4 weeks in a greenhouse", "experimental": "A range of nursery plants that often show quality problems during shipping were chosen including Datura (tropical), Mini-rose, Delphinium (sun perennial), Verbena (sun perennial), Asclepias (sun perennial), Delosperma (groundcover), Myosotis (shade perennial) and Primula (shade perennial).\nSpray liquid had 50 mg/L of 1-MCP. Sprayed and unsprayed control plants, all of which were blooming, were packed in boxes according to standard procedures and shipped under commercial conditions. After 5 days plants were unpacked and given a quality rating, from 0 (poor) to 2 (good). Results were as follows:\nAfter the above observations, the plants were placed in a greenhouse for 4 weeks and assessed again."}, "Cyclamen plants": {"system": "Cyclamen plants", "assay": "Spray with 1-MCP solutions, ethylene challenge (Example 1)", "settings": "Day 7; for Appearance: 1 = poor, 5 = excellent", "experimental": "as §1\n(§2) Visual appearance and flower or bud abscission of Impatiens (unknown cultivar in pots with diameter of 10 cm (4 inch)) and Cyclamen plants (unknown cultivar in pots of diameter 11.5 cm (4.5 inch)) sprayed with 1-MCP solutions and challenged with ethylene."}, "Impatiens": {"system": "Impatiens", "assay": "Spray with 1-MCP solutions, ethylene challenge (Example 1)", "settings": "0 = poor, 5 = excellent", "experimental": "as §1, §2"}}}
{"smiles": "CC1=CC1", "note": "[1-MCP, 1-methylcyclopropene]", "values": [{"measurement": "sprayed plant compared with control plant", "setting": "[1]", "result": "better than the control plant at day 3 or at day 7 or at both"}, {"measurement": "assessment of sprayed plants vs control", "setting": "nursery plants", "result": "typically larger, greener, and healthier"}, {"measurement": "Abscission (%)", "setting": "Cyclamen plants; 1-MCP 10 mg/L", "result": 25.6, "unit": "%"}, {"measurement": "Appearance", "setting": "Cyclamen plants; 1-MCP 10 mg/L", "result": 3.7}, {"measurement": "Abscission (%)", "setting": "Cyclamen plants; 1-MCP 15 mg/L", "result": 23.3, "unit": "%"}, {"measurement": "Appearance", "setting": "Cyclamen plants; 1-MCP 15 mg/L", "result": 3.7}, {"measurement": "Abscission (%)", "setting": "Cyclamen plants; 1-MCP 25 mg/L", "result": 25.0, "unit": "%"}, {"measurement": "Appearance", "setting": "Cyclamen plants; 1-MCP 25 mg/L", "result": 3.7}, {"measurement": "Appearance", "setting": "Impatiens; 1-MCP 10 mg/L, Day 1", "result": 3.7}, {"measurement": "Appearance", "setting": "Impatiens; 1-MCP 10 mg/L, Day 4", "result": 3.3}, {"measurement": "Appearance", "setting": "Impatiens; 1-MCP 100 mg/L, Day 1", "result": 4.3}, {"measurement": "Appearance", "setting": "Impatiens; 1-MCP 100 mg/L, Day 4", "result": 3.7}, {"measurement": "Appearance", "setting": "Impatiens; 1-MCP 300 mg/L, Day 1", "result": 2.3}, {"measurement": "Appearance", "setting": "Impatiens; 1-MCP 300 mg/L, Day 4", "result": 1.3}]}
